Reference: patent publication US6387415B1, “Sequestered metal biocides using ionic polymeric stabilizing agents” (Bio-Lab, Inc., priority 1995, dated 2002)
Read-outs that look alike come from different tables or passages of the source.

Columns and labels:
Type in all cases: cell-based
Chlorella sp. = assay: MIC study against algae (visual growth after two weeks); set-up: key: (−) indicates no algae growth was seen; (+) indicates algae growth was seen
Experimental: (§1) MIC data gives the minimum concentration of biocide needed to prevent growth of the algae in a culture.
(§2) The MIC studies are performed in sterile glassware using both viability and sterility controls. An algae suspension is added to test tubes containing the appropriate amounts of test biocide and the tubes are incubated for two weeks under fluorescent lights (on a “12 hour on”/“12 hour off” lighting regimen). The cultures are then measured by visual observation to determine the presence of living algae.

Phormidium inudatum = assay: as above; set-up: key: (−) indicates no algae growth was seen; (+) indicates algae growth was seen
Experimental: as §1, §2

Phormidium sp. = assay: as above; set-up: key: (−) indicates no algae growth was seen; (+) indicates algae growth was seen
Experimental: as §1, §2

S. aureus = assay: MIC study against bacteria on microtiter plates; set-up: key: (−) indicates no bacterial growth was seen; (+) indicates bacterial growth was seen
Experimental: (§3) MIC data gives the minimum concentration of biocide needed to prevent growth of bacteria in a culture. Individual MIC's were determined by screening on microtiter plates. In order to determine the MIC's, 50 μl of phosphate water is added to each row in columns 2-12. Next, 100 μl of a biocide is added to column […]). Fifty microliters of the biocide is removed from column 1 and serially diluted from columns 2-11 using an eight tip pipettor (octapette). Finally, 50 μl of microbial inoculum is added to columns 1-11 (all rows) and column 12 (row A and E only). Column 12 serves as the row for sterility and viability controls. Bacterial inoculua contain about 1×10^9 colony forming units (cfu) per ml are prepared in 1⁄5 strength Nutrient broth. Bacterial microtiter plates are incubated at 37° C. for 48 hours. MIC's are determined by visual observation of the plates.

E. Coli = assay: MIC study against bacteria on microtiter plates; set-up: key: (−) indicates no bacterial growth was seen; (+) indicates bacterial growth was seen
Experimental: as §3

Row | bacterial growth, MIC results against S. aureus (S. aureus; Silver Conc. 0.39 ppm) | bacterial growth, MIC results against S. aureus (S. aureus; Silver Conc. 0.78 ppm) | bacterial growth, MIC results against S. aureus (S. aureus; Silver Conc. 1.56 ppm) | bacterial growth, MIC results against S. aureus (S. aureus; Silver Conc. 12.5 ppm) | bacterial growth, MIC results against S. aureus (S. aureus; Silver Conc. 25 ppm) | bacterial growth, MIC results against E. Coli (E. Coli; Silver Conc. 0.39 ppm) | bacterial growth, MIC results against E. Coli (E. Coli; Silver Conc. 1.56 ppm) | bacterial growth, MIC results against E. Coli (E. Coli; Silver Conc. 3.1 ppm) | bacterial growth, MIC results against E. Coli (E. Coli; Silver Conc. 12.5 ppm) | bacterial growth, MIC results against E. Coli (E. Coli; Silver Conc. 25 ppm) | Compound | algae growth, MIC results against Chlorella sp. (Chlorella sp.) | algae growth, MIC results against Phormidium inudatum (Phormidium inudatum) | algae growth, MIC results against Phormidium sp. (Phormidium sp.) | bacterial growth, MIC results against S. aureus (S. aureus) | bacterial growth, MIC results against E. Coli (E. Coli)
1 |  |  |  |  |  |  |  |  |  |  | O=S(=O)([O-])[O-].[Cu+2] [Unsequestered Copper, copper sulfate] | − | − | − | − and + | − and +
2 | + | + | − | − | − | + | + | − | − | − | [Ag] [Unsequestered Silver] |  |  |  |  | 
